Source: PMC2365101, “Anti-Inflammatory Activity of (Polyphenolic)-Sulfonates and Their Sodium Salts in Rodents” (Metal-Based Drugs, 1998)

How the values were obtained:
[1] = biological target: T1, IL-1 high affinity receptor on L929 fibroblasts (Mus musculus, UniProt P13504); test: 125I-IL-1 high affinity binding to L929 fibroblasts; conditions: for 125I-IL-1 binding, Percent of Control: at 8 Hours (table title), N=6; for reduction of IL-1 high affinity receptor binding: 5 to 50 μM, 5 hr
T1 construct: host or cells: L929 mouse fibroblasts
T1 sequence (P13504 20-576): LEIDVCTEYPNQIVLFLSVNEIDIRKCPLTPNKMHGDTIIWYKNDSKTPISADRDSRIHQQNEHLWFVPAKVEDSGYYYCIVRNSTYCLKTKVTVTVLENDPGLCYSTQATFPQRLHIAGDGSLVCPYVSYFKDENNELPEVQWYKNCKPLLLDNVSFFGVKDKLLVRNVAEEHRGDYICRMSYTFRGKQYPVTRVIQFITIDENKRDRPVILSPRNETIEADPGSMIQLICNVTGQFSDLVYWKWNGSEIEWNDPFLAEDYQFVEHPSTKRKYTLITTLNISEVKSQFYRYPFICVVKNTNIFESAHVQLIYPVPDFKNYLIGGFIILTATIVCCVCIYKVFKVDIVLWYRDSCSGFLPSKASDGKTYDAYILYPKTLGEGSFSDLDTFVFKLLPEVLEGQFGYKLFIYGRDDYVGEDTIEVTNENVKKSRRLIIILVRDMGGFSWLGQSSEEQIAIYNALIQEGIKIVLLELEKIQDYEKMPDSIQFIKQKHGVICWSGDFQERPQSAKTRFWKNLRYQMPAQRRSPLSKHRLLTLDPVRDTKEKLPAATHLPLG
Text: Few reports in the literature indicate interaction at these receptor sites other than by peptides or antibodies. […] Blocking these receptors is desirable because the entire inflammation cascade of events is triggered by the early release of TNFa and IL-1. […] Radioisotopes were obtained from New England Nuclear [Dupont, Boston, MA] and substrates and co- factors were obtained from Sigma Chemical Co. [St. Louis, MO]. […] Cell lines were obtained from American Type Culture Collection [Rockville, MD]. In Vivo Tests Anti-inflammatory screen in mice: Male CF male mice weighing 28-32g obtained from Jackson Lab. [Bar Harbor, […]] were used to screen agents at 8 or 16 mg/kg intraperitoneal [I.P.] x 2 administered 3 hr and 30 min prior to administering the irritant, according to Winter's protocol. Evaluation of the induced edema was made by injecting 2% carrageenan in 0.9% saline into the plantar region of the foot. The opposite foot injected with 0.9% isotonic saline was used as a base line. […] Salmonella abortus equi [Lot # 69F4003] […] Drugs from 2 to 16 mg/kg, I.P. were administered 2 hr prior and 2 hr post-injection of the LPS and then subsequently for every 24 hr for the length ofthe animals' lives. Deaths were recorded every 12 hr and continued for 96 hr. […] In vitro TNFa andIL-1 Measurements and Cellular Regulation IC-21 mouse macrophages were maintained in RPMI-1640 + 10% FCS + P/S. After the cells had grown to confluency, E. coli LPS at 10 Ixg/ml was added to the medium. Agents were incubated at 12.5 to 100 µM final concentration for 18 hr. The medium (100 btl) was collected for TNFCt determinations. Interleukin-1 [IL-1] release was determined using P388D1 cells which were maintained in RPMI-1640 + 10% FCS + P/S. The L929 bioassay was used to quantitate the TNF and the IL-1 levels. The L929 mouse fibroblasts were grown in DMEM + 10% FCS + P/S to confluency in 96 well plates and incubated with 100 tl ofmedium from IC-20 or P388D cells after 18 hr. The cells were stained with 0.2% crystal violet in 20% MeOH and read at 580 nm using a Molecular Devices scanner (SOFT-max program). […] The cells were washed repeatedly with isotonic saline, pH.7.2 and aliquots counted. Prostaglandin cylcooxygenase activity Mouse J774AI macrophages maintained in Dulbecco's modified Eagle's medium + 15% FCS + P/S. Cells (5 x 106) were incubated with agents (5 to 100 ].tM final concentration) and 3H-arachidonic acid (100 Ci/mol) for 60 min at 37C in a CO2 incubator. The reaction was terminated with 2N HCI, the mixture extracted 2 X with ether, and the organic layer evaporated.

[2] = system: IL-1 release from P388D1 macrophages; test: IL-1 release from P388D1 macrophages (L929 bioassay); type: cell-based, mouse; conditions: 5 μM, over 18 hours, N=6

| SMILES | 125I-IL-1 binding, Percent of Control ([1]; 5 μM) | 125I-IL-1 binding, Percent of Control ([1]; 12.5 μM) | 125I-IL-1 binding, Percent of Control ([1]; 25 μM) | 125I-IL-1 binding, Percent of Control ([1]; 50 μM) | reduction of IL-1 high affinity receptor binding [1] | IL-1 release, Percent of Control [2] |
| --- | --- | --- | --- | --- | --- | --- |
| COc1c2cc(S(=O)(=O)[O-])cc1Cc1cc(S(=O)(=O)[O-])cc(c1OC)Cc1cc(S(=O)(=O)[O-])cc(c1OC)Cc1cc(S(=O)(=O)[O-])cc(c1OC)Cc1cc(S(=O)(=O)[O-])cc(c1OC)Cc1cc(S(=O)(=O)[O-])cc(c1OC)C2.[Na+].[Na+].[Na+].[Na+].[Na+].[Na+] [Compound 6] | 3+2% of Control | 3 + 2% of Control | 3 + 2% of Control | 3 + 1% of Control | greater than 90% | 13 + 3% of Control |
| CC(=O)Oc1c2cc(S(=O)(=O)[O-])cc1Cc1cc(S(=O)(=O)[O-])cc(c1OC(C)=O)Cc1cc(S(=O)(=O)[O-])cc(c1OC(C)=O)Cc1cc(S(=O)(=O)[O-])cc(c1OC(C)=O)Cc1cc(S(=O)(=O)[O-])cc(c1OC(C)=O)Cc1cc(S(=O)(=O)[O-])cc(c1OC(C)=O)Cc1cc(S(=O)(=O)[O-])cc(c1OC(C)=O)Cc1cc(S(=O)(=O)[O-])cc(c1OC(C)=O)C2.[Na+].[Na+].[Na+].[Na+].[Na+].[Na+].[Na+].[Na+] [Compound 8] | 9+ 1% of Control | 10 + 5% of Control | 9 + 5% of Control | 7 + 4% of Control | greater than 90% | 75+ 5% of Control |
